{"source": "paper PMC4773869", "about": "“Influence of plasma-activated compounds on melanogenesis and tyrosinase activity” (Scientific Reports, 2016)", "key": {"[1]": {"system": "B16F10 cells", "assay": "Intracellular melanin content measurement", "format": "cell-based, murine", "conditions": "for melanin, % of control (normalized to 100%): as-synthesized ED, no α-MSH, concentration not given", "experimental": "Melanoma (1.5 × 10^5) cells were seeded in cell culture plates and allowed to attach for 24 hr. Then each eugenol derivative was added and tested separately for melanin activation after 24 hr of incubation. After incubation, cells were detached using trypsin/EDTA and centrifuged at 1000 rpm for 5 min to collect the cell pellets. The cell pellets were solubilized in 1N NaOH at 60 °C for 1 hr. The melanin content was measured spectrophotometrically at 405 nm wavelength using a microplate reader (BioTek, synergy HT)[56]. […] Plasma-treated and non-plasma-treated ED (4b and 6a) were added to the cells, pre-incubated with or without α-MSH (100 nM) for a further 24 hr and melanin content was assayed as described above. Kojic acid can inhibit and α-MSH can stimulate the melanin in the cells, therefore we used them as negative and positive controls."}, "[2]": {"target": "T1, mushroom tyrosinase (Agaricus bisporus, UniProt C7FF04)", "assay": "Circular dichroism analysis of the secondary structure of mushroom tyrosinase", "conditions": "0.1 mM; for Turn % of tyrosinase: enzyme alone 7; for α-helix % of tyrosinase: enzyme alone 16; for β-sheet % of tyrosinase: enzyme alone 33; for Random coil % of tyrosinase: enzyme alone 44", "experimental": "The structural changes in tyrosinase after incubation with ED and PAED were plotted in Fig. 5. […] We observed that the control tyrosinase enzyme has 16% α-helix, 33% β-sheets, 7% turn, and 44% random coil. After the interaction with 4a, the amount of α-helix changed to 15% and β-sheets changed to 35%. On the other hand, after the plasma treatment of 4a the amount of α-helix changed to 17% and β-sheets changed to 31%. While, after interacting with 4b, the amount of α-helix is 16.0%, β-sheets 29%, turn 10%, and random coil is 45.0%. However, plasma-activated 4b interacts differently with tyrosinase enzyme, showing 16% α-helix, 33% β-sheets, 6% turn, and 45% random coil. When 6a ED interacted with tyrosinase enzyme, we observed 20% α-helix, 25% β-sheets, 11.0% turn, and 44% random coil. However, 6a PAED interacts with tyrosinase enzyme, the α-helix changed to 19%, β-sheets 28%, turn 9%, and random coil 44%. […] To obtain further detail on the interaction of the ED with tyrosinase enzyme, we studied the molecular docking. For the CD spectroscopic studies[65][66][67] a J-815 spectrophotometer (Jasco, Japan) was used, equipped with a Peltier system that controlled the temperature. (1S)-(+)-10-camphorsulfonic acid (Aldrich, Milwaukee, WI) with a molar extinction coefficient of 34.5 M/cm at 285 nm and a 2.36 M/cm molar ellipticity (θ) at 295 nm was used for the CD calibrations. The samples were pre-equilibrated at the desired temperature for 15 min, and the scan speed was fixed for adaptative sampling (error F 0.01) with a response time of 1 sec and a 1 nm bandwidth. The secondary structure of the mushroom tyrosinase was monitored by using a 1.0 cm path length cuvette. The mushroom tyrosinase (0.2 mg/ml) was prepared in phosphate buffer (20 mM) at pH 6.8 for CD analysis. We used the 0.1 mM concentration of all derivatives in 1 ml buffer solution, with or without 10 min plasma treatment. All spectra were collected in triplicate from 200 to 250 nm and the background was corrected against the buffer (blank). The percentages of secondary structures of proteins were calculated using inbuilt Jasco software."}, "[3]": {"target": "T1, mushroom tyrosinase", "assay": "Mushroom tyrosinase inhibition assay (L-DOPA, dopachrome at 492 nm)", "format": "biochemical", "design": "purchased Sigma Chemical Co. USA", "conditions": "mean ± SD, read-out: Tyrosinase inhibitory activity IC50 (converted)", "experimental": "To determine the action of ED and PAED, we checked the mushroom tyrosinase inhibitory activity in a cell-free environment. […] Moreover, after plasma treatment for different time intervals, we observed that inhibition activity of 4a, 4b, 4d and 6a was improved more as compared to without treatment. […] However, we observed the highest relative improvement in IC50 value of compound 4b among all ED compounds at 10 min plasma treatment. […] Therefore, we used the 4b and 6a compounds for further investigations, based on the decrease in IC50 value to a global minimum of the experiment after plasma treatment.\nThe mushroom tyrosinase was used for in vitro bioassays as described previously with some modifications. Briefly, 140 μl of phosphate buffer (20 mM, pH 6.8), 20 μl of mushroom tyrosinase (30 U/ml), and 20 μl of the inhibitor solution were placed in the wells of a 96-well plate. After pre-incubation for 10 min at room temperature, 20 μl of L-DOPA (3,4-dihydroxyphenylalanine) (0.85 mM) was added and the plate was further incubated at 25 °C for 20 min. Subsequently the absorbance of dopachrome was measured at 492 nm using a micro plate reader (OPTI Max, Tunable). Kojic acid was used as a reference inhibitor. The extent of inhibition by the test compounds was expressed as the […] necessary to achieve 50% inhibition (IC50). Each concentration was analyzed in three independent experiments run in triplicate. The IC50 values were determined by the data analysis and graphing software, Origin."}, "[4]": {"conditions": "tyrosinase + as-synthesized compound (0 min plasma)"}, "[5]": {"conditions": "Con: as-synthesized, before plasma treatment, cell-free"}, "[6]": {"conditions": "compound after 3 min N2 APPJ plasma treatment"}, "[7]": {"conditions": "compound after 5 min N2 APPJ plasma treatment"}, "[8]": {"conditions": "compound after 10 min N2 APPJ plasma treatment"}, "[9]": {"conditions": "tyrosinase + 10 min plasma-treated compound"}}, "note": "Read-outs that look alike come from different tables or passages of the source."}
{"compound": "C=CCc1ccc(OC(=O)COC(=O)c2ccc(O)cc2O)c(OC)c1", "note": "[4c, 2-[2-methoxy-4-(prop-2-en-1-yl)phenoxy]-2-oxoethyl 2,4-dihydroxybenzoate]", "values": [{"measurement": "melanin, % of control (normalized to 100%)", "setting": "[1]", "result": 117, "unit": "%"}, {"measurement": "melting point", "result": "99 to 101", "unit": "°C"}, {"measurement": "Turn % of tyrosinase", "setting": "[2]; [4]", "result": 4, "unit": "%"}, {"measurement": "α-helix % of tyrosinase", "setting": "[2]; [4]", "result": 16, "unit": "%"}, {"measurement": "β-sheet % of tyrosinase", "setting": "[2]; [4]", "result": 35, "unit": "%"}, {"measurement": "Random coil % of tyrosinase", "setting": "[2]; [4]", "result": 45, "unit": "%"}, {"measurement": "IC50", "setting": "[3]; [5]", "result": 41.9, "unit": "µM"}, {"measurement": "IC50", "setting": "[3]; [6]", "result": 53, "unit": "µM"}, {"measurement": "IC50", "setting": "[3]; [7]", "result": 67, "unit": "µM"}, {"measurement": "IC50", "setting": "[3]; [8]", "result": 80.9, "unit": "µM"}]}
{"compound": "O=c1cc(CO)occ1O", "note": "[Kojic acid, reference compound]", "values": [{"measurement": "inhibition at 250 µg/mL", "setting": "[1]; Mus musculus, B16-F10, 250 μg/ml, absence of α-MSH, negative control, read-out: inhibition of melanin synthesis compared to the control", "result": "~12", "unit": "%"}]}
{"compound": "C=CCc1ccc(OC(=O)COC(=O)/C=C/c2ccc(Cl)cc2)c(OC)c1", "note": "[6b, 2-[2-methoxy-4-(prop-2-en-1-yl)phenoxy]-2-oxoethyl(2E)-3-(4-chloroyphenyl)prop-2-enoate]", "values": [{"measurement": "melanin, % of control (normalized to 100%)", "setting": "[1]", "result": 119, "unit": "%"}, {"measurement": "melanin stimulation (in words)", "setting": "[1]; with or without plasma treatment, presence or absence of α-MSH (Fig. 10)", "result": "Melanin stimulation was observed"}, {"measurement": "melting point", "result": "86 to 88", "unit": "°C"}, {"measurement": "Turn % of tyrosinase", "setting": "[2]; [4]", "result": 3, "unit": "%"}, {"measurement": "α-helix % of tyrosinase", "setting": "[2]; [4]", "result": 15, "unit": "%"}, {"measurement": "β-sheet % of tyrosinase", "setting": "[2]; [4]", "result": 37, "unit": "%"}, {"measurement": "Random coil % of tyrosinase", "setting": "[2]; [4]", "result": 45, "unit": "%"}, {"measurement": "IC50", "setting": "[3]; [5]", "result": 18.1, "unit": "µM"}, {"measurement": "IC50", "setting": "[3]; [6]", "result": 85.3, "unit": "µM"}, {"measurement": "IC50", "setting": "[3]; [7]", "result": 103, "unit": "µM"}, {"measurement": "IC50", "setting": "[3]; [8]", "result": 142, "unit": "µM"}]}
{"compound": "C=CC(=O)c1ccc(OC(=O)COC(=O)/C=C/c2ccc(O)cc2)c(OC)c1", "note": "[Plasma treated 6a]", "values": [{"measurement": "Turn % of tyrosinase", "setting": "[2]; [9]", "result": 9, "unit": "%"}, {"measurement": "α-helix % of tyrosinase", "setting": "[2]; [9]", "result": 19, "unit": "%"}, {"measurement": "β-sheet % of tyrosinase", "setting": "[2]; [9]", "result": 28, "unit": "%"}, {"measurement": "Random coil % of tyrosinase", "setting": "[2]; [9]", "result": 44, "unit": "%"}]}
{"compound": "C=CCc1ccc(OC(=O)COC(=O)c2ccc(O)c(O)c2)c(OC)c1", "note": "[4d, 2-[2-methoxy-4-(prop-2-en-1-yl)phenoxy]-2-oxoethyl 3,4-dihydroxybenzoate]", "values": [{"measurement": "melanin, % of control (normalized to 100%)", "setting": "[1]", "result": 110, "unit": "%"}, {"measurement": "melting point", "result": "148 to 151", "unit": "°C"}, {"measurement": "Turn % of tyrosinase", "setting": "[2]; [4]", "result": 7, "unit": "%"}, {"measurement": "α-helix % of tyrosinase", "setting": "[2]; [4]", "result": 15, "unit": "%"}, {"measurement": "β-sheet % of tyrosinase", "setting": "[2]; [4]", "result": 33, "unit": "%"}, {"measurement": "Random coil % of tyrosinase", "setting": "[2]; [4]", "result": 45, "unit": "%"}, {"measurement": "IC50", "setting": "[3]; [5]", "result": 162, "unit": "µM"}, {"measurement": "IC50", "setting": "[3]; [6]", "result": 131, "unit": "µM"}, {"measurement": "IC50", "setting": "[3]; [7]", "result": 100, "unit": "µM"}, {"measurement": "IC50", "setting": "[3]; [8]", "result": 80.9, "unit": "µM"}]}
{"compound": "O=C(COC(=O)c1ccc(O)cc1)Oc1ccc(C(=O)/C=C/O)cc1OCO", "note": "[Plasma treated 4b]", "values": [{"measurement": "melanin synthesis, % of control (100%)", "setting": "[1]; 10 min plasma-treated, presence of α-MSH", "result": 188, "unit": "%"}, {"measurement": "Turn % of tyrosinase", "setting": "[2]; [9]", "result": 6, "unit": "%"}, {"measurement": "α-helix % of tyrosinase", "setting": "[2]; [9]", "result": 16, "unit": "%"}, {"measurement": "β-sheet % of tyrosinase", "setting": "[2]; [9]", "result": 33, "unit": "%"}, {"measurement": "Random coil % of tyrosinase", "setting": "[2]; [9]", "result": 45, "unit": "%"}]}
{"compound": "C=CCc1ccc(OC(=O)COC(=O)c2cccc(O)c2)c(OC)c1", "note": "[4a, 2-[2-methoxy-4-(prop-2-en-1-yl)phenoxy]-2-oxoethyl 3-hydroxybenzoate]", "values": [{"measurement": "melanin, % of control (normalized to 100%)", "setting": "[1]", "result": 116, "unit": "%"}, {"measurement": "melting point", "result": "70 to 72", "unit": "°C"}, {"measurement": "α-helix % of tyrosinase", "setting": "[2]; [9]", "result": 17, "unit": "%"}, {"measurement": "β-sheet % of tyrosinase", "setting": "[2]; [9]", "result": 31, "unit": "%"}, {"measurement": "Turn % of tyrosinase", "setting": "[2]; [4]", "result": 5, "unit": "%"}, {"measurement": "α-helix % of tyrosinase", "setting": "[2]; [4]", "result": 15, "unit": "%"}, {"measurement": "β-sheet % of tyrosinase", "setting": "[2]; [4]", "result": 35, "unit": "%"}, {"measurement": "Random coil % of tyrosinase", "setting": "[2]; [4]", "result": 45, "unit": "%"}, {"measurement": "IC50", "setting": "[3]; [5]", "result": 73, "unit": "µM"}, {"measurement": "IC50", "setting": "[3]; [6]", "result": 70.1, "unit": "µM"}, {"measurement": "IC50", "setting": "[3]; [7]", "result": 58.4, "unit": "µM"}, {"measurement": "IC50", "setting": "[3]; [8]", "result": 49.7, "unit": "µM"}]}
{"compound": "C=CCc1ccc(OC(=O)COC(=O)c2cc(O)cc(O)c2)c(OC)c1", "note": "[4e, 2-[2-methoxy-4-(prop-2-en-1-yl)phenoxy]-2-oxoethyl 3,5-dihydroxybenzoate]", "values": [{"measurement": "melanin, % of control (normalized to 100%)", "setting": "[1]", "result": 115, "unit": "%"}, {"measurement": "melting point", "result": "107 to 109", "unit": "°C"}, {"measurement": "Turn % of tyrosinase", "setting": "[2]; [4]", "result": 6, "unit": "%"}, {"measurement": "α-helix % of tyrosinase", "setting": "[2]; [4]", "result": 15, "unit": "%"}, {"measurement": "β-sheet % of tyrosinase", "setting": "[2]; [4]", "result": 33, "unit": "%"}, {"measurement": "Random coil % of tyrosinase", "setting": "[2]; [4]", "result": 46, "unit": "%"}, {"measurement": "IC50", "setting": "[3]; [5]", "result": 53, "unit": "µM"}, {"measurement": "IC50", "setting": "[3]; [6]", "result": 215, "unit": "µM"}, {"measurement": "IC50", "setting": "[3]; [7]", "result": 201, "unit": "µM"}, {"measurement": "IC50", "setting": "[3]; [8]", "result": 156, "unit": "µM"}]}
